Data taken from article PMC10725351, “Niosomal formulation of mefenamic acid for enhanced cancer targeting; preparation, characterization and biodistribution study using radiolabeling technique” (Journal of Cancer Research and Clinical Oncology, 2023).

Experiment: In vitro drug release study (dialysis bag, PBS pH 7.4, 37 °C) with kinetic model fitting
Type: physicochemical
Experimental: In comparison to the release of MEF from suspension, the MEF release from the optimal niosomal formulation was assessed. The dialysis method is the technique of choice for assessing the criteria of drug release from the niosomal formula. MEF release from niosomal formulation and suspension was monitored using a dialysis bag (MWCO12000 Da) at 37 °C for 24 h versus PBS (pH 7.4) to simulate the biological conditions. The optimal niosomes formula and suspension (1 ml of each) were loaded separately inside the dialysis tube, and the released quantity of MEF was evaluated in 100 ml of PBS with continuous stirring. At predefined intervals, (1, 2, 3, 4, 5, 6, 8, and 24 h), 2 ml of freshly formed PBS was added to replace two ml that were withdrawn from the release medium to assess the drug release rate. Lastly, the released concentrations of MEF were determined by examining the samples at 285 nm wavelength using a UV–visible spectrophotometer. This study was performed in triplicate (Targhi et al. [2021]).
The mathematical methodology utilized to determine the kinetics of the total released percentages (cumulative) of MEF from the niosomes formulation was linear regression analysis. These models include Higuchi, Korsmeyer Peppas, First Order, and Zero Order. In the end, the correlation coefficient values were compared to select the model that best fit the data. […]

Cumulative MEF release (after 24 h, PBS pH 7.4, 37 °C, dialysis bag): 55.36%
Order of permeation (best-fit release model): Diffusion
Compound: Cc1cccc(Nc2ccccc2C(=O)O)c1C [MEF suspension, mefenamic acid]
